Source: patent publication US12145914B2, “Compound having oxadiazole and pharmaceutical composition containing the same” (SK BIOPHARMACEUTICALS CO., LTD., priority 2018, dated 2024)

System: focal onset seizures induced by electrostimulation of 44 mA, 6 Hz, 3 sec in ICR mouse
Experiment: 6 Hz method for screening anticonvulsants (6 Hz, 44 mA electrostimulation)
Type: in vivo
Conditions: male ICR mice, intraperitoneal (ip), electrostimulation 44 mA, 3 sec to the eye, number of non-seizure animals/number of animals used
Text: The utility of the compounds according to the present invention as an anticonvulsant agent has been investigated by the 6 Hz method, which has been well established as pharmacological screening methods of convulsant agents for focal onset seizures. The procedure of the 6 Hz method for screening anticonvulsant was as follows:
1) Preparation of Experimental Animals
Male ICR mice are purchased from Orient Bio, Inc. of Korea, and are stored and managed according to laboratory animal management standards of the Institutional Animal Care and Use Committee (IACUC) by putting the same in a wire net cage under an environment in which an ambient temperature of 19 to 25° C., 40 to 60% relative humidity and 12 hour periods of light/dark were auto-controlled, and water was freely taken. After stabilization for a week, mice with a body weight of 18 to 23 g were used in the experiment.
2) Evaluation of the Anticonvulsant Effect of a Compound
5% Tetracaine (Sigma) was added to both eyes to provide a local anesthetic effect at 5 to 10 minutes before the period of electrical stimulation at the animal ICR mouse. The compounds to be tested were dissolved in distilled water in which 30% polyethylene glycol 300+5% dimethylsulfoxide+5% Cremophor was dissolved and administered intraperitoneally (ip) to the animal at a dosage volume of 10 mL/kg. Then, electrostimulation of 44 mA, 6 Hz, and 3 sec was applied to the eye to induce focus-generating seizures. After the electrical stimulation, the presence of seizures due to drug effects was confirmed, and the ratio of animals showing no seizures was expressed as a protection rate (the number of non-seizure animals/the number of animals used in experiments=protection rate). […]

SMILES | 6 Hz, 44 mA protection rate
Cc1nnc(CC(O)c2cc(-c3ccc(C(F)(F)F)cc3)ccc2F)o1 (stereo not drawn) [Example 2, 1-[2-fluoro-5-[4-(trifluoromethyl)phenyl]phenyl]-2-(5-methyl-1,3,4-oxadiazol-2-yl)ethanol] | ++ (0.6 to 0.8 are scored as ‘++’)
COC(Cc1nnc(C)o1)c1cccc(-c2ccc(C(F)(F)F)cc2)c1 (stereo not drawn) [Example 56, 2-[2-methoxy-2-[3-[4-(trifluoromethyl)phenyl]phenyl]ethyl]-5-methyl-1,3,4-oxadiazole] | ++ (0.6 to 0.8 are scored as ‘++’)
Cc1nnc(CC(OC(N)=O)c2cc(-c3ccc(C(F)(F)F)cc3)ccc2F)o1 (stereo not drawn) [Example 3, [1-[2-fluoro-5-[4-(trifluoromethyl)phenyl]phenyl]-2-(5-methyl-1,3,4-oxadiazole-2-yl)ethyl] carbamate] | ++ (0.6 to 0.8 are scored as ‘++’)
OC(Cc1nnco1)c1cccc(-c2ccc(C(F)(F)F)cc2)c1 (stereo not drawn) [Example 52, 2-(1,3,4-oxadiazol-2-yl)-1-[3-[4-(trifluoromethyl)phenyl]phenyl]ethanol] | + (0.2 to 0.6 are scored as ‘+’)
OC(Cc1nnco1)c1cc(-c2ccc(C(F)(F)F)cc2)ccc1F (stereo not drawn) [Example 5, 1-[2-fluoro-5-[4-(trifluoromethyl)phenyl]phenyl]-2-(1,3,4-oxadiazol-2-yl)ethanol] | + (0.2 to 0.6 are scored as ‘+’)
Cc1nnc(CC(O)c2cc(CCC(F)(F)F)ccc2F)o1 (stereo not drawn) [Example 10, 1-[2-fluoro-5-(3,3,3-trifluoropropyl)phenyl]-2-(5-methyl-1,3,4-oxadiazol-2-yl)ethanol] | + (0.2 to 0.6 are scored as ‘+’)
Cc1nnc(CC(OC(N)=O)c2cccc(-c3ccc(F)cc3)c2)o1 (stereo not drawn) [Example 72, [1-[3-(4-fluorophenyl)phenyl]-2-(5-methyl-1,3,4-oxadiazol-2-yl)ethyl] carbamate] | + (0.2 to 0.6 are scored as ‘+’)
CCc1nnc(CC(O)c2cccc(-c3ccc(C(F)(F)F)cc3)c2)o1 (stereo not drawn) [Example 53, 2-(5-ethyl-1,3,4-oxadiazol-2-yl)-1-[3-[4-(trifluoromethyl)phenyl]phenyl]ethanol] | + (0.2 to 0.6 are scored as ‘+’)
NC(=O)OC(Cc1nnco1)c1cc(-c2ccc(C(F)(F)F)cc2)ccc1Cl (stereo not drawn) [Example 51, [1-[2-chloro-5-[4-(trifluoromethyl)phenyl]phenyl]-2-(1,3,4-oxadiazol-2-yl)ethyl]carbamate] | + (0.2 to 0.6 are scored as ‘+’)
Cc1nnc(CC(OC(N)=O)c2cccc(OCCCC(F)(F)F)c2)o1 (stereo not drawn) [Example 20, [2-(5-methyl-1,3,4-oxadiazol-2-yl)-1-[3-(4,4,4-trifluorobutoxy)phenyl]ethyl] carbamate] | + (0.2 to 0.6 are scored as ‘+’)
CCCCOc1ccc(F)c(C(Cc2nnc(C)o2)OC(N)=O)c1 (stereo not drawn) [Example 22, [1-(5-butoxy-2-fluoro-phenyl)-2-(5-methyl-1,3,4-oxadiazol-2-yl)ethyl] carbamate] | + (0.2 to 0.6 are scored as ‘+’)
Cc1nnc(CC(O)c2cccc(-c3ccc(OC(F)(F)F)cc3)c2)o1 (stereo not drawn) [Example 59, 2-(5-methyl-1,3,4-oxadiazol-2-yl)-1-[3-[4-(trifluoromethoxy)phenyl]phenyl]ethanol] | ++ (0.6 to 0.8 are scored as ‘++’)
Cc1nnc(CC(OC(N)=O)c2cc(OCCCC(F)(F)F)ccc2F)o1 (stereo not drawn) [Example 16, [1-[2-fluoro-5-(4,4,4-trifluorobutoxy)phenyl]-2-(5-methyl-1,3,4-oxadiazol-2-yl)ethyl] carbamate] | ++ (0.6 to 0.8 are scored as ‘++’)
Cc1nnc(CC(O)c2cc(-c3ccc(C(F)(F)F)cc3)ccc2Cl)o1 (stereo not drawn) [Example 48, 1-[2-chloro-5-[4-(trifluoromethyl)phenyl]phenyl]-2-(5-methyl-1,3,4-oxadiazol-2-yl)ethanol] | ++ (0.6 to 0.8 are scored as ‘++’)
Cc1nnc(CC(OC(N)=O)c2cc(CCC(F)(F)F)ccc2F)o1 (stereo not drawn) [Example 11, [1-[2-fluoro-5-(3,3,3-trifluoropropyl)phenyl]-2-(5-methyl-1,3,4-oxadiazol-2-yl)ethyl] carbamate] | + (0.2 to 0.6 are scored as ‘+’)
OC(Cc1nnco1)c1cc(OCCCC(F)(F)F)ccc1F (stereo not drawn) [Example 23, 1-[2-fluoro-5-(4,4,4-trifluorobutoxy)phenyl]-2-(1,3,4-oxadiazol-2-yl)ethanol] | + (0.2 to 0.6 are scored as ‘+’)
CCCCCc1ccc(F)c(C(Cc2nnc(C)o2)OC(N)=O)c1 (stereo not drawn) [Example 28, [1-(2-fluoro-5-pentyl-phenyl)-2-(5-methyl-1,3,4-oxadiazol-2-yl)ethyl] carbamate] | ++ (0.6 to 0.8 are scored as ‘++’)

SMILES | 6 Hz, 44 mA protection rate
Cc1nnc(CC(OC(N)=O)c2cc(CCCC(F)(F)F)ccc2F)o1 (stereo not drawn) [Example 33, [1-[2-fluoro-5-(4,4,4-trifluorobutyl)phenyl]-2-(5-methyl-1,3,4-oxadiazol-2-yl)ethyl] carbamate] | + (0.2 to 0.6 are scored as ‘+’)
Cc1nnc(CC(O)c2cc(C(=O)NCCC(F)(F)F)ccc2F)o1 (stereo not drawn) [Example 37, 4-fluoro-3-[1-hydroxy-2-(5-methyl-1,3,4-oxadiazol-2-yl)ethyl]-N-(3,3,3-trifluoropropyl)benzamide] | + (0.2 to 0.6 are scored as ‘+’)
Cc1nnc(CC(O)c2cc(OCC(F)(F)F)ccc2F)o1 (stereo not drawn) [Example 17, 1-[2-fluoro-5-(2,2,2-trifluoroethoxy)phenyl]-2-(5-methyl-1,3,4-oxadiazol-2-yl)ethanol] | + (0.2 to 0.6 are scored as ‘+’)
Cc1nnc(CC(OC(N)=O)c2cc(-c3ccc(Cl)cc3)ccc2F)o1 (stereo not drawn) [Example 4, [1-[5-(4-chlorophenyl)-2-fluoro-phenyl]-2-(5-methyl-1,3,4-oxadiazol-2-yl)ethyl] carbamate] | ++ (0.6 to 0.8 are scored as ‘++’)
NC(=O)OC(Cc1nnco1)c1cc(OCCCC(F)(F)F)ccc1F (stereo not drawn) [Example 24, [1-[2-fluoro-5-(4,4,4-trifluorobutoxy)phenyl]-2-(1,3,4-oxadiazol-2-yl)ethyl] carbamate] | ++ (0.6 to 0.8 are scored as ‘++’)
Cc1nnc(CC(OC(N)=O)c2cccc(-c3ccc(OC(F)(F)F)cc3)c2)o1 (stereo not drawn) [Example 78, [1-[3-[4-(trifluoromethoxy)phenyl]phenyl]-2-(5-methyl-1,3,4-oxadiazol-2-yl)ethyl] carbamate] | ++ (0.6 to 0.8 are scored as ‘++’)
Cc1nnc(CC(O)c2cccc(OCCCC(F)(F)F)c2)o1 (stereo not drawn) [Example 19, 2-(5-methyl-1,3,4-oxadiazol-2-yl)-1-[3-(4,4,4-trifluorobutoxy)phenyl]ethanol] | + (0.2 to 0.6 are scored as ‘+’)
Cc1nnc(CC(O)c2cc(CCCCC(F)(F)F)ccc2F)o1 (stereo not drawn) [Example 32, 1-[2-fluoro-5-(5,5,5-trifluoropentyl)-phenyl]-2-(5-methyl-1,3,4-oxadiazol-2-yl)ethanol] | + (0.2 to 0.6 are scored as ‘+’)
Nc1nnc(-c2cccc(Cl)c2Cl)c(N)n1 [Lamotrigine, reference compound] | − (the protection rates 0 to 0.2 are scored as ‘−’)
CC[C@@H](C(N)=O)N1CCCC1=O [Levitiracetam, (S)-α-ethyl-2-oxo-1-pyrrolidine acetamide, reference compound] | − (the protection rates 0 to 0.2 are scored as ‘−’)
Cc1nnc(CC(O)c2cccc(-c3ccc(Cl)cc3)c2)o1 (stereo not drawn) [Example 65, 1-[3-(4-chlorophenyl)phenyl]-2-(5-methyl-1,3,4-oxadiazol-2-yl)ethanol] | ++ (0.6 to 0.8 are scored as ‘++’)
Cc1nnc(CC(O)c2cc(-c3ccc(Cl)cc3)ccc2F)o1 (stereo not drawn) [Example 1, 1-[5-(4-chlorophenyl)-2-fluoro-phenyl]-2-(5-methyl-1,3,4-oxadiazol-2-yl)ethanol] | ++ (0.6 to 0.8 are scored as ‘++’)
Cc1nnc(CC(OC(N)=O)c2cccc(-c3ccc(Cl)cc3)c2)o1 (stereo not drawn) [Example 75, [1-[3-(4-chlorophenyl)phenyl]-2-(5-methyl-1,3,4-oxadiazole-2-yl)ethyl] carbamate] | + (0.2 to 0.6 are scored as ‘+’)
COc1ccc(-c2ccc(C(F)(F)F)cc2)cc1C(O)Cc1nnc(C)o1 (stereo not drawn) [Example 43, 1-[2-methoxy-5-[4-(trifluoromethyl)phenyl]phenyl]-2-(5-methyl-1,3,4-oxadiazol-2-yl)ethanol] | + (0.2 to 0.6 are scored as ‘+’)
Cc1nnc(CC(O)c2cc(OCCCC(F)(F)F)ccc2Cl)o1 (stereo not drawn) [Example 39, 1-[2-chloro-5-(4,4,4-trifluorobutoxy)phenyl]-2-(5-methyl-1,3,4-oxadiazol-2-yl)ethanol] | + (0.2 to 0.6 are scored as ‘+’)
Cc1nnc(CC(OC(N)=O)c2cccc(-c3ccc(C(F)(F)F)cc3)c2)o1 (stereo not drawn) [Example 7, [2-(5-methyl-1,3,4-oxadiazol-2-yl)-1-[3-[4-(trifluoromethyl)phenyl]phenyl]ethyl]carbamate] | ++ (0.6 to 0.8 are scored as ‘++’)
